Reference: ChEMBL document CHEMBL1201862, “PubChem BioAssay data set” (2004)
Counter-ions that a name gives are not always drawn. Active and inactive are the calls of the source.

How the values were obtained:
Hexokinase-1 = biological target: T1, Hexokinase-1 (Homo sapiens, UniProt P19367); assay: SAR analysis of small molecule inhibitors of hexokinase domain containing I (HKDC1) in the hexokinase 1 selectivity assay. [Related pubchem assays (depositor defined):AID493160, AID493190]; assay type: functional
T1 sequence (P19367 whole entry): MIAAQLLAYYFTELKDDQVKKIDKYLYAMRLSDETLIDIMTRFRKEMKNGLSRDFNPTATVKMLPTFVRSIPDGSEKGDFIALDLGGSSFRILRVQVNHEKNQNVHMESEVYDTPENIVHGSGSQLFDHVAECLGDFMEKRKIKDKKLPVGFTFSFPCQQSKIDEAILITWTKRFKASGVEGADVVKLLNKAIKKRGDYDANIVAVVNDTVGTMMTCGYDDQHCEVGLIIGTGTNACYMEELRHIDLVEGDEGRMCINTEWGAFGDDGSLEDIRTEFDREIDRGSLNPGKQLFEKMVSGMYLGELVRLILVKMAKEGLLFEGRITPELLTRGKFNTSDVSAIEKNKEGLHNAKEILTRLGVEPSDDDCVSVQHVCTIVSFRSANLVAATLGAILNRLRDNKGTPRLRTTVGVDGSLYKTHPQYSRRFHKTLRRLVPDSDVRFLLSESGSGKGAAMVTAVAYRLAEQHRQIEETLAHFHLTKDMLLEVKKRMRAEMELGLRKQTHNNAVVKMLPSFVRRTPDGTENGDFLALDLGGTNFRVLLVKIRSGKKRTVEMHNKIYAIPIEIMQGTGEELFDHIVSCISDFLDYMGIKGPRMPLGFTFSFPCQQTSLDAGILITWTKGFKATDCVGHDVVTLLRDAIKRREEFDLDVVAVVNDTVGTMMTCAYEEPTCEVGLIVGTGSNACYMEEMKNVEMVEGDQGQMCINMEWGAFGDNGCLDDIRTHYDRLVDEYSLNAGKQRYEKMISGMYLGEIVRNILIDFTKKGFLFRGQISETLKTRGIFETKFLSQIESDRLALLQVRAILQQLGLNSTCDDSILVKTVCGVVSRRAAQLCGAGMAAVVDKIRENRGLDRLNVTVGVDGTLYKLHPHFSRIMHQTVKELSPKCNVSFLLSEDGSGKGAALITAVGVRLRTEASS

Hexokinase HKDC1 = biological target: T2, Hexokinase HKDC1 (Homo sapiens, UniProt Q2TB90); assay: SAR analysis of small molecule inhibitors of hexokinase domain containing I (HKDC1). [Related pubchem assays (depositor defined):AID493160, AID493190]; assay type: functional
T2 sequence (Q2TB90 whole entry): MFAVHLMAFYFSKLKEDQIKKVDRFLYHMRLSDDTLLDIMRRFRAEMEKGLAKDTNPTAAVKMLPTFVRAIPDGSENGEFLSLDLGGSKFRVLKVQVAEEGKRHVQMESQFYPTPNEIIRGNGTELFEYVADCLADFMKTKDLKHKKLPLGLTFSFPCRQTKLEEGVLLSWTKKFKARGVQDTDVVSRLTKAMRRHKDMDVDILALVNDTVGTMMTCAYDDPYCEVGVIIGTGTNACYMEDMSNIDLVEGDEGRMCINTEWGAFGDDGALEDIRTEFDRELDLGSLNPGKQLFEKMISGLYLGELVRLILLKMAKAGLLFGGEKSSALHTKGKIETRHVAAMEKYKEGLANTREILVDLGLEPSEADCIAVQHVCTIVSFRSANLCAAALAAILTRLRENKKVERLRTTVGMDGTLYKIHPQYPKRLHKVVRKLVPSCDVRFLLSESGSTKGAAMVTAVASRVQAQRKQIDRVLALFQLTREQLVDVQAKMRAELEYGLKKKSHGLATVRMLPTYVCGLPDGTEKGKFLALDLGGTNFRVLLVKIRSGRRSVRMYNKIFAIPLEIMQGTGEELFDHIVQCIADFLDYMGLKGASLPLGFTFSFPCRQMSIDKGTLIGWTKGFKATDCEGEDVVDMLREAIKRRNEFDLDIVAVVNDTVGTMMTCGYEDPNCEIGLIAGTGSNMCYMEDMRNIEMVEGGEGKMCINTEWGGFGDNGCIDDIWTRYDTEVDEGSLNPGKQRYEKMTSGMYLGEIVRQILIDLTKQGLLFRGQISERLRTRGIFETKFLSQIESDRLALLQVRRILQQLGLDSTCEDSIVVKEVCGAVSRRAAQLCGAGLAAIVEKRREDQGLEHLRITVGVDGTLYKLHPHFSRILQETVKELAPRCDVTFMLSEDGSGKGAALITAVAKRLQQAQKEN

CAAX prenyl protease 2 [1] = biological target: T3, CAAX prenyl protease 2 (Saccharomyces cerevisiae S288c, UniProt Q03530); assay type: biochemical
T3 sequence (Q03530 whole entry): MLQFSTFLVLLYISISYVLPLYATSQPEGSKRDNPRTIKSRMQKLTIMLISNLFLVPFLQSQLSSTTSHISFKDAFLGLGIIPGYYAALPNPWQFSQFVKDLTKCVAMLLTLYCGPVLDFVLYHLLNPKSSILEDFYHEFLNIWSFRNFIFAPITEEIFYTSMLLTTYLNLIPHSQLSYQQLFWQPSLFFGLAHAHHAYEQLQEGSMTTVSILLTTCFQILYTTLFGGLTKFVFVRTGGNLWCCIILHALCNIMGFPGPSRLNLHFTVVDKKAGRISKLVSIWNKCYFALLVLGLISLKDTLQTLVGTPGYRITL

CAAX prenyl protease 2 [2] = biological target: CAAX prenyl protease 2 (Homo sapiens, UniProt Q9Y256); assay: human Rce1 protease inhibitors, dose response, biochemical, yeast membranes, quenched-peptide fluorescence, cherry-pick (AID 588849)
Trypsin = Trypsin (Sus scrofa, UniProt P00761); assay: porcine trypsin inhibitors, dose response, selectivity assay for Rce1 protease inhibitor project, biochemical, quenched peptide fluorescence, cherry-pick (AID 488789)
Vero [3] = assay: cells; assay type: functional; details: Chlorocebus sabaeus
[4] = cytotoxicity toward DRD oncogenic fibroblasts, dose response, cell-based, non-viral oncogenic, luminescence (AID 1934); assay type: functional; details: Homo sapiens
BJ [5] = assay: cytotoxicity toward BJ-TERT-LT-ST fibroblasts, dose response, cell-based, RAS-independent, luminescence (AID 1935); assay type: functional; details: Homo sapiens;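 note: BJ fibroblasts immortalized with TERT plus LT and ST oncogenes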
INS1 = assay: beta cell apoptosis inhibitors, cytokine rescue, dose response, luminescence, retest (AID 449756); assay type: functional, cell-based; details: Rattus norvegicus;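 note: cell death triggered by IL-1 beta plus TNF-alpha plus IFN-gamma mixture; protective hits raise ATP signal compared with cytokine alone wells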
Vero [6] = assay: cells; assay type: functional, cell-based; details: Chlorocebus sabaeus
BJ [7] = assay: cells; assay type: functional, cell-based; details: Homo sapiens
[8] = C. albicans growth with fluconazole, confirmation, fluorescence, retest (AID 2467); assay type: functional, cell-based
Nonstructural protein 1 = Nonstructural protein 1 (Influenza A virus, UniProt Q194T2); assay type: functional, Influenza A virus (A/California/07/2009(H1N1))
[9] = NIH-3T3 fibroblast cytotoxicity, dose response, cytotoxicity control, cell-based, fluorescence, Alamar Blue, secondary assay (AID 2327); assay type: functional;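 note: NIH-3T3 mouse fibroblasts cultured with fluconazole at 8 µg/mL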
BJ [10] = assay: cytotoxicity toward BJ-TERT fibroblasts, dose response, cell-based, RAS-independent, luminescence (AID 1933); assay type: functional; details: Homo sapiens
[11] = biological target: T4, RNA-binding protein pos-1 (Caenorhabditis elegans, UniProt G5EF15); assay: inhibitors of POS-1/mex-3 RNA binding, dose response, biochemical, fluorescence polarization (AID 1964);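 note: purified POS-1 fused to maltose binding protein made in E. coli; potency of compounds blocking POS-1 binding to fluorescent RNA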
T4 sequence (G5EF15 whole entry): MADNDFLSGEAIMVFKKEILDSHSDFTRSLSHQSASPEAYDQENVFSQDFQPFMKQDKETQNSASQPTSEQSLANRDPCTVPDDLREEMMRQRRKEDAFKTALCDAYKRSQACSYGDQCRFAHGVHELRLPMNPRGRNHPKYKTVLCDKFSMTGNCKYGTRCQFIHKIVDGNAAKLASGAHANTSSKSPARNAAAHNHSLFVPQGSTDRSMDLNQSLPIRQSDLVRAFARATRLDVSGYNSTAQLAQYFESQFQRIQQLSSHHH

[12] = biological target: Dual specificity tyrosine-phosphorylation-regulated kinase 1A (Rattus norvegicus, UniProt Q63470); assay type: biochemical, Homo sapiens
[13] = biological target: T5, Zinc finger protein mex-5 (Caenorhabditis elegans, UniProt Q9XUB2); assay: MEX-5/TCR-2 RNA interaction inhibitors, dose response, biochemical, C. elegans, fluorescence polarization (AID 1960)
T5 sequence (Q9XUB2 whole entry): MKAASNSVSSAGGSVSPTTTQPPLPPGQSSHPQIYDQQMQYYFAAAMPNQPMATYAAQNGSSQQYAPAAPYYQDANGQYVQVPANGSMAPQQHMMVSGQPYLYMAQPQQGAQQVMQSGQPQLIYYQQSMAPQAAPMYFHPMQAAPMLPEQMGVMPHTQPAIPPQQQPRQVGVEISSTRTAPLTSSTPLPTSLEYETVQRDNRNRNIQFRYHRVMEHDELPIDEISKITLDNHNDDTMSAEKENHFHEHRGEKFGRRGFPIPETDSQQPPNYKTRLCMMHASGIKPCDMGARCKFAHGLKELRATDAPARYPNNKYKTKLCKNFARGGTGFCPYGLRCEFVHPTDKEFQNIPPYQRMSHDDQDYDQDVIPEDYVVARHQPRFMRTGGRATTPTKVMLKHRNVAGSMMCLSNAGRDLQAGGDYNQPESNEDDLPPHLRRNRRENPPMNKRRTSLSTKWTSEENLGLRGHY

[14] = biological target: Voltage-gated inwardly rectifying potassium channel KCNH2 (Homo sapiens, UniProt Q12809); details: Potency;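 note: confirmatory quantitative high-throughput screen measuring inhibition of hERG channel activity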
Escherichia coli = assay: microbe, parasite or virus in culture
[15] = biological target: T6, Type-1 angiotensin II receptor (Homo sapiens, UniProt P30556); assay: AT1 receptor antagonists, dose response, selectivity assay for APJ receptor antagonist project, cell-based, uHTS hits (AID 463214); assay type: functional;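 note: antagonist potency against angiotensin II stimulated AT1 response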
T6 sequence (P30556 whole entry): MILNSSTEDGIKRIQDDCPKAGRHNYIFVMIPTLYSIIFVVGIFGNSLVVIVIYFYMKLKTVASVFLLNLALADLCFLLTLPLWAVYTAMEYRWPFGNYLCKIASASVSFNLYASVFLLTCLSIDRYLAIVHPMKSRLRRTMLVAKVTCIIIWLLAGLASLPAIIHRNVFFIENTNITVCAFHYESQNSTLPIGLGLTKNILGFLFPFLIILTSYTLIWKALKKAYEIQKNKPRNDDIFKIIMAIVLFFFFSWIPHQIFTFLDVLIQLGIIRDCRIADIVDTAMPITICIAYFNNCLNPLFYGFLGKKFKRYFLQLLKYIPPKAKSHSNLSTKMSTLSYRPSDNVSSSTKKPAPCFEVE

Protein skinhead-1 = biological target: T7, Protein skinhead-1 (Caenorhabditis elegans, UniProt P34707); assay type: functional
T7 sequence (P34707 whole entry): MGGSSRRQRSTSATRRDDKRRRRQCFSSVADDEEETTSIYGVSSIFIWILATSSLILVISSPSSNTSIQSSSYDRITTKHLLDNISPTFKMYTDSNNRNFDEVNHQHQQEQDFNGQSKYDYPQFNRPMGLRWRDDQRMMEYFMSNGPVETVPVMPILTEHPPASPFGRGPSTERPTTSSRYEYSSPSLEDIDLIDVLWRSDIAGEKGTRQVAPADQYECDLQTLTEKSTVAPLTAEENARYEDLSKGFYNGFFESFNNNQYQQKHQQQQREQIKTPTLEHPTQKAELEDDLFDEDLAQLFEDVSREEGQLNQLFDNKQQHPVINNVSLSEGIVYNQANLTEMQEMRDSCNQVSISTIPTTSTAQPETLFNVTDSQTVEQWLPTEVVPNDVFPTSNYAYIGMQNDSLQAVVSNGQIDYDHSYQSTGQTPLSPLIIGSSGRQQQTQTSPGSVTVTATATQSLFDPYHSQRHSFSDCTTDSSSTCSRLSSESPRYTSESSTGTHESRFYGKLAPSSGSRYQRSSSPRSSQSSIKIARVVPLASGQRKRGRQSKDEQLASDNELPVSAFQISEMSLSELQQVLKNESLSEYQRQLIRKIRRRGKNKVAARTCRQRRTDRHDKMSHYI

Beta-galactosidase = Beta-galactosidase (Escherichia coli, UniProt Q8VNN2); assay: PubChem AID 485352; assay type: functional
Beta-galactosidase, sequence (Q8VNN2 whole entry): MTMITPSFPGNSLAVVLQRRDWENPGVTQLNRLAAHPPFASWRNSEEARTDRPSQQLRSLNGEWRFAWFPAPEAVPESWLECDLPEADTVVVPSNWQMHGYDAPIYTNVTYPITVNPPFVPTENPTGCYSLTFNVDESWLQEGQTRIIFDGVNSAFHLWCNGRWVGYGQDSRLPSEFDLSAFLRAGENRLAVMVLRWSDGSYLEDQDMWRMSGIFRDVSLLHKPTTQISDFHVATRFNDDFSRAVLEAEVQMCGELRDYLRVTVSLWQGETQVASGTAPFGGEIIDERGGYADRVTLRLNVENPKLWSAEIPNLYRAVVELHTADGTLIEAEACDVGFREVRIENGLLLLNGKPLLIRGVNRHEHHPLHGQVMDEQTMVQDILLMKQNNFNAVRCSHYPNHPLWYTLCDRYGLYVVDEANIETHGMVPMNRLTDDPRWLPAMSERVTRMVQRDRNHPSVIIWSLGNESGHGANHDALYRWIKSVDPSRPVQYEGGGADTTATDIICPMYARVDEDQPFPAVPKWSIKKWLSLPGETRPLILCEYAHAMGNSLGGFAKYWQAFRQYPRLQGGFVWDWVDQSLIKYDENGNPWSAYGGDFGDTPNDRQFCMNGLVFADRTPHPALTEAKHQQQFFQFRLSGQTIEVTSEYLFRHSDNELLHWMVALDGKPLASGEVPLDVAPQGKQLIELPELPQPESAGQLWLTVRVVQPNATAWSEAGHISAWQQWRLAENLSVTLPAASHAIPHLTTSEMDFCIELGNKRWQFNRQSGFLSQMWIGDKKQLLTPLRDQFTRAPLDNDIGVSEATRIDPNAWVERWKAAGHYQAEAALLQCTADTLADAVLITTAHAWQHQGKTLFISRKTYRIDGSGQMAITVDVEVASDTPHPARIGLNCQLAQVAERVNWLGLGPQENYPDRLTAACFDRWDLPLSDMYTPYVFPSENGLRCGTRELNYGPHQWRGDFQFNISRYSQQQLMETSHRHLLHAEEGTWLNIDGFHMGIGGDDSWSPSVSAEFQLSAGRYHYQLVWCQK

CAAX prenyl protease 2 (Homo sapiens, UniProt Q9Y256), sequence (Q9Y256 whole entry): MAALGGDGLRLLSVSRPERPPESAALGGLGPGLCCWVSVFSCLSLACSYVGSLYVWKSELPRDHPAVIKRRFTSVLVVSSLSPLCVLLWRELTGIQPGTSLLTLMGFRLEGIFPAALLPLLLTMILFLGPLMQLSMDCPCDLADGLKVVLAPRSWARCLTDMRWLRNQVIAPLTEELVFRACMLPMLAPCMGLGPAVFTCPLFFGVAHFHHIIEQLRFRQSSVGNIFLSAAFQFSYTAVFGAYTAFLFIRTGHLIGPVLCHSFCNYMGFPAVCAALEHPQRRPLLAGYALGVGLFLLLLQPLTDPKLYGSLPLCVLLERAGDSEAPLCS
Nonstructural protein 1, sequence (Q194T2 whole entry): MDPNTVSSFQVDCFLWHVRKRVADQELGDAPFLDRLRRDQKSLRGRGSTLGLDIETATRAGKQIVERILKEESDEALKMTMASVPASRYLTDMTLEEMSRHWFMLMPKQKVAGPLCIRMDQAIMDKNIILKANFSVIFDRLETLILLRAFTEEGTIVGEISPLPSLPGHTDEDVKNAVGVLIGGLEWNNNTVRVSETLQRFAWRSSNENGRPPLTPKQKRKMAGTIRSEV
Voltage-gated inwardly rectifying potassium channel KCNH2, sequence (Q12809 whole entry): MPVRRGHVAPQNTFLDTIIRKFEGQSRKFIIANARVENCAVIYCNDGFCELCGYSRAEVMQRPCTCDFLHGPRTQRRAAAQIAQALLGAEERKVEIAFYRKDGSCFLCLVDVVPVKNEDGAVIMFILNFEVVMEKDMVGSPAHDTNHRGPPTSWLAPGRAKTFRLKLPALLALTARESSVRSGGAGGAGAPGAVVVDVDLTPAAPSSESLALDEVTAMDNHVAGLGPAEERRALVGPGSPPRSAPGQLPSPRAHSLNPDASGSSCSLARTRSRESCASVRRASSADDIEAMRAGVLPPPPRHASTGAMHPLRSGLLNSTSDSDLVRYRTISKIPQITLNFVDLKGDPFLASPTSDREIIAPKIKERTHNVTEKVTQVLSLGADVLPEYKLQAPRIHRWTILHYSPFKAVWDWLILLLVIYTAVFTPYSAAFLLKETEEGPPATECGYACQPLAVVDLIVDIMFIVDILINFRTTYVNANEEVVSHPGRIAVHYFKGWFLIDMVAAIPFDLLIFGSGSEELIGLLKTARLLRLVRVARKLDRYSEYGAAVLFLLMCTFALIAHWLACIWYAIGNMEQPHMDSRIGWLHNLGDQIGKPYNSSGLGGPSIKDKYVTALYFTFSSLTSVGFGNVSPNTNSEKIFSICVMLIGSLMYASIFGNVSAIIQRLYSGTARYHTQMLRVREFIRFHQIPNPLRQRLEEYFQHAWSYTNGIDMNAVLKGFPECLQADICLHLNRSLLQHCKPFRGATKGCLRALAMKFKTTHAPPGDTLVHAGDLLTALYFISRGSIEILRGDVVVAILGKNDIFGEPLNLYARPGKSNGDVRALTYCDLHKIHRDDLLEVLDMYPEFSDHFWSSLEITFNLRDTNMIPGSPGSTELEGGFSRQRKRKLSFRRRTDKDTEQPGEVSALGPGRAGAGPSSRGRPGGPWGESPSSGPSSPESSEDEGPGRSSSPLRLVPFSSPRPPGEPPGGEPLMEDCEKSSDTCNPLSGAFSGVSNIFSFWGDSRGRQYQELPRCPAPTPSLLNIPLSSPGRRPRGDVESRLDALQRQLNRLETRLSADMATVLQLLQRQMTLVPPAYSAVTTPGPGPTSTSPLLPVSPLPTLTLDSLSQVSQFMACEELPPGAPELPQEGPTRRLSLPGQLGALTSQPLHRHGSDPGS
Trypsin, sequence (P00761 whole entry): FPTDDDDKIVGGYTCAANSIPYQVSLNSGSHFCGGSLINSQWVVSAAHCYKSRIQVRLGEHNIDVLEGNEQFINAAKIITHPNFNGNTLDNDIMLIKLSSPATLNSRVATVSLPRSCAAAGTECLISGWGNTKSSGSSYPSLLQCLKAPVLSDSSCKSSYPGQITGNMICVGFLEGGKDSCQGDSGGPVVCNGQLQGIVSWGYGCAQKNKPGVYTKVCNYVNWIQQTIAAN

**Q.** Which results are given for `Cc1ccc(/C=C/c2nc3ccccc3c(=O)n2CCc2ccccc2)cc1`?
**A.** IC50 (Hexokinase-1): > 80 µM (inactive); IC50 (Hexokinase HKDC1): > 80 µM (inactive)

**Q.** Which results are given for `Cc1ccc(S(=O)(=O)Cc2cn3cccnc3n2)cc1`?
**A.** AC50 (CAAX prenyl protease 2 [1]): 16.2 µM (active); AC50 (CAAX prenyl protease 2 [2]): 34.3 µM (active); AC50 (Trypsin): 25.1 µM (active)

**Q.** Which results are given for `C/C(=N\NC(=O)c1cc(-c2cccs2)nc2ccccc12)c1ccccn1`?
**A.** CC50 (Vero [3]): 1.62 µM (active); EC50 [4]: 1.41 µM (active); EC50 (BJ [5]): 1.14 µM (active); AC50 (INS1): 366 nM (active); IC50 (Vero [6]): > 25 µM (active); EC50 (BJ [7]): 2.12 µM (active); EC50 [8]: 1.19 µM (active); IC50 (Nonstructural protein 1): 4.52 µM (active); EC50 [9]: 2.71 µM (inconclusive); EC50 (BJ [10]): 1.3 µM (active)

**Q.** For `Cc1c(C(=O)O)cccc1-n1c(C)cc(/C=N/Nc2ccc([N+](=O)[O-])cn2)c1C`, which EC50 [11] is on record?
**A.** > 300 µM (not active)

**Q.** What about the AC50 [12] of the same molecule?
**A.** 6.79 µM (active)

**Q.** What about the EC50 [13] of the same molecule?
**A.** 50.2 µM (active)

**Q.** For `CCCN1CCC[C@@H]2Cc3n[nH]cc3C[C@H]21` [QUINPIROLE HYDROCHLORIDE], which AC50 [14] is on record?
**A.** 11.2 µM (inconclusive)

**Q.** With `CCc1nc2ccccc2c(C(=O)OC2CCOC2=O)c1C` (stereo not drawn) as the molecule, how does the AC50 (Escherichia coli) read?
**A.** 42.9 µM (active)

**Q.** Which IC50 [15] does the source give for `Cc1ccccc1NC(=O)CCC(=O)OCC(=O)c1cccc([N+](=O)[O-])c1` here?
**A.** 33.6 µM (not active)

**Q.** And the IC50 (Protein skinhead-1)?
**A.** > 100 µM (inactive)

**Q.** And the EC50 (Beta-galactosidase)?
**A.** > 40 µM (inactive)
